Laboratory results reported in patent publication US20050043378A1, “LTA4H modulators” (priority 2003, published 2005).
Structures can show the parent of a compound that is named as a salt. Where two headings read alike, the source gives them in different places.

Assays:
[1] = test system: neutrophil influx (myeloperoxidase, MPO); assay: Murine arachidonic acid-induced inflammation model: neutrophil influx (myeloperoxidase activity in ear biopsies); type: in vivo, female Balb/c mice; conditions: Mus musculus, read-out: % Inh. MPO
[2] = test system: LTB4 production by calcium ionophore-stimulated murine blood; assay: LTB4 production by calcium ionophore-stimulated murine blood for LTA4H inhibitor activity; type: cell-based, CD-1 mice
[3] = test system: ex vivo stimulated LTB4 production in blood; assay: Murine arachidonic acid-induced inflammation model: ex vivo stimulated LTB4 production; parameters: species or system female Balb/c mice; conditions: Mus musculus, read-out: % Inh. LTB4
[4] = target: T1, recombinant human LTA4 hydrolase (rhLTA4H) (Homo sapiens, UniProt P09960); assay: Recombinant human LTA4 hydrolase assay for LTA4 hydrolase inhibitor activity; type: biochemical; conditions: LTA4 substrate, LTB4 by immunoassay, average of one to three determinations;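 also: enzyme expressed in Sf-9 insect cells, compound preincubated 10 min with enzyme, 10 min reaction at room temperature, uninhibited reaction as positive control, enzyme-free blank as negative control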
T1 construct: made in house; host or cells: Spodoptera frugiperda (Sf-9) cells, baculovirus (pFastBac1)
T1 sequence (P09960 1-611): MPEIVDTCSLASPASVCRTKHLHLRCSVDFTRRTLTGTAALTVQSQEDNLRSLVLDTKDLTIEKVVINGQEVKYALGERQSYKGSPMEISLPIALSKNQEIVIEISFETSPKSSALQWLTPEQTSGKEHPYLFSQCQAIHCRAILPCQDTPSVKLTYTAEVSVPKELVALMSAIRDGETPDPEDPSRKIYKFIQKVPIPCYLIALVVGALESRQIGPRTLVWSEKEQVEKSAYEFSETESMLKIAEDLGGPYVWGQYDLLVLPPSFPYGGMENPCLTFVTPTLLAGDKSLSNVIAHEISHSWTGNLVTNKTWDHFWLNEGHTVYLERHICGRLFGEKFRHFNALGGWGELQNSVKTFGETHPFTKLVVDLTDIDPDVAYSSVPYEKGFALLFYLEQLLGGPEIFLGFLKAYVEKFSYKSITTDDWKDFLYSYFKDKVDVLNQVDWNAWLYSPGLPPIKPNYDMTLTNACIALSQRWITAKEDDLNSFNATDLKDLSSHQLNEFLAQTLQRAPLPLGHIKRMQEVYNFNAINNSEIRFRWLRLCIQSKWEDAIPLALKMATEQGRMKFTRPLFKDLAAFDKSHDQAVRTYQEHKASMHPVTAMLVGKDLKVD

[5] = test system: ionophore-induced LTB4 production in rat peritoneum; conditions: oral administration; cited from earlier work
[6] = test system: ionophore-induced LTB4 production in mouse blood; conditions: oral administration; cited from earlier work
colitis symptoms = conditions: eight weeks of treatment, cotton top tamarins; cited from earlier work
[7] = 30 mg/kg oral gavage 60 min before topical arachidonic acid to ear, ear biopsies after 3 h, vs animals without inhibitor
[8] = diluted CD-1 mouse whole blood, A23187 stimulation, LTB4 by immunoassay, read-out: IC50
[9] = 30 mg/kg oral gavage, blood taken 3 h after arachidonic acid, ex vivo A23187 stimulation, vs animals without inhibitor

Row | SMILES | inhibition in vivo at 30 mg/kg [1, 7] | IC50 [2, 8] | inhibition at 30 mg/kg [3, 9] | IC50 [4] | inhibition in vivo at 30 mg/kg ([1]; po, 3 h) | IC50 ([2]; Mus musculus) | inhibition at 30 mg/kg ([3]; po, 3 h) | inhibition of ionophore-induced LTB4 production in rat peritoneum in vivo [5] | inhibition of ionophore-induced LTB4 production in mouse blood ex vivo [6] | colitis symptoms (colitis symptoms)
1 | c1ccc2sc(Oc3ccc(OCCn4nnnc4C4CCNCC4)cc3)nc2c1 [Example 206, 2-{4-[2-(5-Piperidin-4-yl-tetrazol-1-yl)-ethoxy]-phenoxy}-benzothiazole] | 76% | 43 nM | 67% | 4 nM | – | – | – | – | – | –
2 | O=C(O)C1CCN(CCOc2ccc(Oc3nc4ccccc4s3)cc2)CC1 [Example 18, 1-{2-[4-(Benzothiazol-2-yloxy)-phenoxy]-ethyl}-piperidine-4-carboxylic acid potassium salt] | – | – | – | 6 nM | 83% | 162 nM | 78% | – | – | –
3 | O=C1C[C@@H](O)CN1C1CCN(Cc2ccc(Oc3nc4ccccc4s3)cc2)CC1 [Example 446, 1-{1-[4-(Benzothiazol-2-yloxy)-benzyl]-piperidin-4-yl}-4-hydroxy-pyrrolidin-2-one] | 43% | 131 nM | 64% | 8 nM | – | – | – | – | – | –
4 | O=C1C[C@H](O)CN1C1CCN(CCc2ccc(Oc3nc4ccccc4s3)cc2)CC1 [Example 336, (S)-1-(1-{2-[4-(Benzothiazol-2-yloxy)-phenyl]-ethyl}-piperidin-4-yl)-4-hydroxy-pyrrolidin-2-one] | 0% | 153 nM | 67% | 24 nM | – | – | – | – | – | –
5 | O=C(O)CCN(CCc1ccc(Oc2nc3ccccc3s2)cc1)CC1CC1 [Example 180, 3-({2-[4-(Benzothiazol-2-yloxy)-phenyl]-ethyl}-cyclopropylmethyl-amino)-propionic acid] | 87% | 15 nM | 87% | 2 nM | – | – | – | – | – | –
6 | CN(CCCOc1ccc(Cc2ccccc2)cc1)CCC(=O)O.Cl [SC57461] | – | – | – | – | – | – | – | caused inhibition of ionophore-induced LTB4 production | caused inhibition of ionophore-induced LTB4 production | significantly improved colitis symptoms
7 | OCC1CCN(Cc2ccc(Oc3nc4ccccc4s3)cc2)CC1 [Example 360, {1-[4-(Benzothiazol-2-yloxy)-benzyl]-piperidin-4-yl}-methanol] | 88% | 246 nM | 87% | 33 nM | – | – | – | – | – | –
8 | O=C(O)C1CCCN(CCc2ccc(Oc3nc4ccccc4s3)cc2)C1 (centres unmarked) [Example 155, 1-{2-[4-(Benzothiazol-2-yloxy)-phenyl]-ethyl}-piperidine-3-carboxylic acid] | 93% | 127 nM | 96% | 9 nM | – | – | – | – | – | –
9 | OC1(c2ccccc2)CCN(CCCOc2ccc(Oc3nc4ccccc4o3)cc2)CC1 [Example 27, 1-{3-[4-(Benzooxazol-2-yloxy)-phenoxy]-propyl}-4-phenyl-piperidin-4-ol] | 72% | – | – | 7 nM | – | 143 nM | 50% | – | – | –
10 | O=C(O)C1CCN(CCc2ccc(Oc3nc4ccccc4s3)cc2)CC1 [Example 150, 1-{2-[4-(Benzothiazol-2-yloxy)-phenyl]-ethyl}-piperidine-4-carboxylic acid] | 91% | 52 nM | 81% | 1 nM | – | – | – | – | – | –
11 | O=C1C[C@H](O)CN1C1CCN(Cc2ccc(Oc3nc4ccccc4s3)cc2)CC1 [Example 447, 1-{1-[4-(Benzothiazol-2-yloxy)-benzyl]-piperidin-4-yl}-4-hydroxy-pyrrolidin-2-one] | 48% | 240 nM | 90% | 28 nM | – | – | – | – | – | –
12 | OCC1CCCCN1CCOc1ccc(Oc2nc3ccccc3s2)cc1 (centres unmarked) [Example 263, (1-{2-[4-(Benzothiazol-2-yloxy)-phenoxy]-ethyl}-piperidin-2-yl)-methanol] | 19% | 49 nM | 0% | 5 nM | – | – | – | – | – | –
